# Assay results: patent EP3572411A1, “THIAZOLE DERIVATIVES AS METALLO-BETA-LACTAMASE INHIBITORS” (Antabio SAS, priority 2018, dated 2019)
# Read-outs that look alike come from different tables or passages of the source.
# Assays:
# IMP-1 = target: T1, IMP-1 (Serratia marcescens, UniProt P52699); assay: In vitro enzyme inhibition assay (imipenem hydrolysis, UV 299 nm); format: biochemical
# T1 construct: VIM-1; VIM-2
# Experimental: (§1) In vitro enzyme inhibition assays: Enzyme inhibition assays are performed using purified MBL enzymes (NDM-1; VIM-1; VIM-2; IMP-1) in 10mM HEPES buffer pH 7.5 in 96-well microtiter plates. Imipenem (300µM) is used as substrates and its hydrolysis is followed at UV 299 nm during 10mn every 30 seconds using a Perkin Elmer Envision UV fluorescence plate reader. Hydrolysis rate data in presence of a range of inhibitors are analysed using Dotmatics database software and calculated IC50 values are converted to Ki values using the Cheng-Prusoff equation. Ki = IC50 / (1+([S]/Km) and where the Km values for […] are 70 µM, 1.5 µM, 9 µM and 25 µM respectively. Compound dilution is performed in DMSO. Mean Ki values from multiple experiments are presented. Results are shown in Table 1.
# NDM-1 = target: T2, NDM-1 (Klebsiella pneumoniae, UniProt C7C422); assay: as above; format: biochemical
# T2 construct: VIM-1; VIM-2
# T2 sequence (C7C422 29-270, looked up): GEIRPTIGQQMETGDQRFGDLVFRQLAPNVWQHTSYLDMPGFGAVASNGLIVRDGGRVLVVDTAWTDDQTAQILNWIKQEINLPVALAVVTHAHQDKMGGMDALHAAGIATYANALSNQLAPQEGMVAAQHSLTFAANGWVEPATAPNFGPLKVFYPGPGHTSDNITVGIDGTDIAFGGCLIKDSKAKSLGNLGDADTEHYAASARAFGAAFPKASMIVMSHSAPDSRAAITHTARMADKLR
# Experimental: as §1
# VIM-1 = target: T3, VIM-1 (Pseudomonas aeruginosa, UniProt A0A0F7KYQ8); assay: as above; format: biochemical
# T3 construct: VIM-1; VIM-2; IMP-1)
# Experimental: as §1
# VIM-2 = target: T4, VIM-2 (Escherichia coli, UniProt Q5U7L7); assay: as above; format: biochemical
# T4 construct: VIM-1; VIM-2
# Experimental: as §1
# [1] = tested on: NTBC018 (C. freundii strain expressing VIM-2); assay: Antimicrobial susceptibility testing (broth micro-dilution, Meropenem potentiation); format: cell-based; details: MIC of Meropenem with compound at constant 8 µg/mL; CAMHB, 18-20 hours, 37°C
# Experimental: (§2) Antimicrobial susceptibility testing: The operation is carried out using the 'broth micro-dilution method' according to the protocols M07-A8 established by the Clinical Laboratory Standards Institute (CLSI). Serial dilutions of the β-lactam antibiotic (Meropenem) are prepared in 96-well plates in cation-adjusted Mueller-Hinton broth (CAMHB); the concentration range is defined from 0.03 mg/L to 512 mg/L. The compounds are added at a constant concentration of 8 µg/mL. A bacterial inoculum of each strain (clinical isolates) is adjusted to a 0.5 McFarland turbidity standard in physiologic serum (0.9 % NaCl), then diluted 1:100 in CAMHB and added to each well to give a final bacterial cell number of 5x10^5 CFU/well. After incubation for 18-20 hours in a heating chamber at 37°C, the growth inhibition is evaluated by the absence of any bacterial development.
# (§3) The compounds of Table 2 are added at a constant concentration of 8 µg/mL. The clinical strains used in these potentiation experiments are NTBC020 (E. coli strain expressing NDM-1, TEM-1 and CTX-M-15); NTBC035-2 (K. pneumoniae strain expressing NDM-1, CMY-4 and SHV-11); NTBC104-1 (K. pneumoniae strain expressing NDM-1 and SHV-11); NTBC123 (K. pneumoniae strain expressing NDM-1); NTBC018 (C. freundii strain expressing VIM-2); NTBC024 (K. pneumoniae strain expressing VIM-19, TEM-1 and CTX-M-3); NTBC042 (E. coli strain expressing VIM-1, TEM-1 , CTX-M-15, SHV-12); NTBC055 (E. Coli strain expressing VIM-1); NTBC062 (K. pneumoniae strain expressing IMP-1 and TEM-1) and NTBC039 (K. oxytoca strain expressing IMP-28). • For NDM-1 the Ki values of < 0.05 µM are designated (A); Ki values of 0.05 - 0.2 µM are designated (B); Ki values of 0.2 - 0.4 µM are designated (C). • For VIM-1 the Ki values of < 0.2 µM are designated (A); Ki values of 0.2 - 0.5 µM are designated (B); Ki values of 0.5 - 0.8 µM are designated (C). • For VIM-2 the Ki values of < 0.02 µM are designated (A); Ki values of 0.02 - 0.05 µM are designated (B); Ki values of 0.05 - 0.2 µM are designated (C). • For IMP-1 the Ki values of < 0.5 µM are designated (A); Ki values of 0.5 - 1 µM are designated (B); Ki values of 1 - 8 µM are designated (C). • MIC values of < 1 µg/mL are designated (A); MIC values of 1 - 2 µg/mL are designated (B); • MIC values of 2 - 128 µg/mL are designated (C). Table 1. Ki results
# [2] = tested on: NTBC020 (E. coli strain expressing NDM-1, TEM-1 and CTX-M-15); assay: as above; format: cell-based; details: MIC of Meropenem with compound at constant 8 µg/mL; CAMHB, 18-20 hours, 37°C
# Experimental: as §2, §3
# [3] = tested on: NTBC024 (K. pneumoniae strain expressing VIM-19, TEM-1 and CTX-M-3); assay: as above; format: cell-based; details: MIC of Meropenem with compound at constant 8 µg/mL; CAMHB, 18-20 hours, 37°C
# Experimental: as §2, §3
# [4] = tested on: NTBC035-2 (K. pneumoniae strain expressing NDM-1, CMY-4 and SHV-11); assay: as above; format: cell-based; details: MIC of Meropenem with compound at constant 8 µg/mL; CAMHB, 18-20 hours, 37°C
# Experimental: as §2, §3
# [5] = tested on: NTBC039 (K. oxytoca strain expressing IMP-28); assay: as above; format: cell-based; details: MIC of Meropenem with compound at constant 8 µg/mL; CAMHB, 18-20 hours, 37°C
# Experimental: as §2, §3
# [6] = tested on: NTBC042 (E. coli strain expressing VIM-1, TEM-1 , CTX-M-15, SHV-12); assay: as above; format: cell-based; details: MIC of Meropenem with compound at constant 8 µg/mL; CAMHB, 18-20 hours, 37°C
# Experimental: as §2, §3
# [7] = tested on: NTBC055 (E. Coli strain expressing VIM-1); assay: as above; format: cell-based; details: MIC of Meropenem with compound at constant 8 µg/mL; CAMHB, 18-20 hours, 37°C
# Experimental: as §2, §3
# [8] = tested on: NTBC062 (K. pneumoniae strain expressing IMP-1 and TEM-1); assay: as above; format: cell-based; details: MIC of Meropenem with compound at constant 8 µg/mL; CAMHB, 18-20 hours, 37°C
# Experimental: as §2, §3
# [9] = tested on: NTBC104-1 (K. pneumoniae strain expressing NDM-1 and SHV-11); assay: as above; format: cell-based; details: MIC of Meropenem with compound at constant 8 µg/mL; CAMHB, 18-20 hours, 37°C
# Experimental: as §2, §3
# [10] = tested on: NTBC123 (K. pneumoniae strain expressing NDM-1); assay: as above; format: cell-based; details: MIC of Meropenem with compound at constant 8 µg/mL; CAMHB, 18-20 hours, 37°C
# Experimental: as §2, §3
# [11] = purified enzyme, 10mM HEPES pH 7.5, Imipenem 300µM; mean Ki from IC50 by Cheng-Prusoff; read-out: Ki (µM) IMP-1
# [12] = purified enzyme, 10mM HEPES pH 7.5, Imipenem 300µM; mean Ki from IC50 by Cheng-Prusoff; read-out: Ki (µM) NDM-1
# [13] = purified enzyme, 10mM HEPES pH 7.5, Imipenem 300µM; mean Ki from IC50 by Cheng-Prusoff; read-out: Ki (µM) VIM-1
# [14] = purified enzyme, 10mM HEPES pH 7.5, Imipenem 300µM; mean Ki from IC50 by Cheng-Prusoff; read-out: Ki (µM) VIM-2
# T1 sequence (P52699 19-246, looked up, species assumed): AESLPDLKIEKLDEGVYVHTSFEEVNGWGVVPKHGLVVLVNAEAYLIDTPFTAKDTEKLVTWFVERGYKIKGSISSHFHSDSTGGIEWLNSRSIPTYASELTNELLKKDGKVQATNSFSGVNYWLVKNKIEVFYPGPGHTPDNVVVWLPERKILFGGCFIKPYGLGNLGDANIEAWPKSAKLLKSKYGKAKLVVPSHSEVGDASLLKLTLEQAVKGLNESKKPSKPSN
Compound,Ki (IMP-1; [11]) [µM],Ki (NDM-1; [12]) [µM],Ki (VIM-1; [13]) [µM],Ki (VIM-2; [14]) [µM],MIC Strain NTBC018 [1],MIC Strain NTBC020 [2],MIC Strain NTBC024 [3],MIC Strain NTBC035-2 [4],MIC Strain NTBC039 [5],MIC Strain NTBC042 [6],MIC Strain NTBC055 [7],MIC Strain NTBC062 [8],MIC Strain NTBC104-1 [9],MIC Strain NTBC123 [10],"Ki (IMP-1; read-out: Ki (µM) IMP-1; purified enzyme, 10mM HEPES pH 7.5, Imipenem 300µM; mean Ki from IC50 by Cheng-Prusoff) [µM]","Ki (NDM-1; read-out: Ki (µM) NDM-1; purified enzyme, 10mM HEPES pH 7.5, Imipenem 300µM; mean Ki from IC50 by Cheng-Prusoff) [µM]","Ki (VIM-1; read-out: Ki (µM) VIM-1; purified enzyme, 10mM HEPES pH 7.5, Imipenem 300µM; mean Ki from IC50 by Cheng-Prusoff) [µM]","Ki (VIM-2; read-out: Ki (µM) VIM-2; purified enzyme, 10mM HEPES pH 7.5, Imipenem 300µM; mean Ki from IC50 by Cheng-Prusoff) [µM]"
"3-(3-carbamimidamidopropyl)-1-[({4-[(4-carboxy-1,3-thiazol-5-yl)sulfamoyl]-2-fluorophenyl}carbamoyl)methyl]-1H-imidazol-3-ium [Example 17]",1 to 8,< 0.05,< 0.2,< 0.02,(A) (MIC values of < 1 µg/mL are designated (A)),(C) (MIC values of 2 - 128 µg/mL are designated (C)),(B) (MIC values of 1 - 2 µg/mL are designated (B)),(B) (MIC values of 1 - 2 µg/mL are designated (B)),(C) (MIC values of 2 - 128 µg/mL are designated (C)),d(B) (MIC values of 1 - 2 µg/mL are designated (B)),(B) (MIC values of 1 - 2 µg/mL are designated (B)),(B) (MIC values of 1 - 2 µg/mL are designated (B)),(C) (MIC values of 2 - 128 µg/mL are designated (C)),(C) (MIC values of 2 - 128 µg/mL are designated (C)),–,–,–,–
"3-[({4-[(4-carboxy-1,3-thiazol-5-yl)sulfamoyl]-2-fluorophenyl}carbamoyl)methyl]-1-[2-(trimethylammonio)ethyl]imidazol-1-ium [Example 21]",1 to 8,< 0.05,< 0.2,< 0.02,(B) (MIC values of 1 - 2 µg/mL are designated (B)),(C) (MIC values of 2 - 128 µg/mL are designated (C)),(C) (MIC values of 2 - 128 µg/mL are designated (C)),(C) (MIC values of 2 - 128 µg/mL are designated (C)),(B) (MIC values of 1 - 2 µg/mL are designated (B)),(B) (MIC values of 1 - 2 µg/mL are designated (B)),(B) (MIC values of 1 - 2 µg/mL are designated (B)),(B) (MIC values of 1 - 2 µg/mL are designated (B)),(B) (MIC values of 1 - 2 µg/mL are designated (B)),(C) (MIC values of 2 - 128 µg/mL are designated (C)),–,–,–,–
"C[n+]1nnn(CC(=O)Nc2ccc(S(=O)(=O)Nc3scnc3C(=O)[O-])cc2F)c1N [Example 26, 5-amino-1-[({4-[(4-carboxy-1,3-thiazol-5-yl)sulfamoyl]-2-fluorophenyl}carbamoyl)methyl]-4-methyl-1H-1,2,3,4-tetrazol-4-ium]",–,–,–,–,–,–,–,–,–,–,–,–,–,–,0.5 to 1,< 0.05,0.2 to 0.5,0.05 to 0.2
